From paper PMC5823845 (Bioorganic & Medicinal Chemistry, 2018)

Legend:
[1] = in the absence of S9; cited from earlier work
[2] = Log D pH 7.4, octanol/buffer shake flask method
Protocol: Briefly, octanol (pre-saturated with buffer) is added to the test compound and sonicated. Buffer at pH 7.4 (presaturated with octanol) is then added to the octanol. […] The system is mixed to allow distribution of the compound between the two phases.
Log D = Log (Coct / Caq ). Where: Coct = Concentration in octanol sample (corrected for dilution) and Caq = Concentration in aqueous sample (corrected for dilution)

[3] = Intrinsic clearance in liver microsomes; assay type: in vitro ADME; conditions: liver microsomes, 37 °C, NADPH, 45 min, mean of 5
Protocol: The reaction is terminated by the addition of methanol. Following centrifugation, the supernatant is analyzed on the LC-MS/MS. […] The data is the mean on 5 separate experiments.
The ln peak area ratio (compound peak area/internal standard peak area) is plotted against time and the gradient of the line determined.
(see Supplementary data file for details).

[4] = test system: HEPG2 cells; test: High-content cell toxicity screen in HEPG2 cells; assay type: cell-based; conditions: concentrations between 10 and 30 μM
Protocol: Effect on the cell or mitochondrial viability markers in HepG2 cells were tested for compounds up to 50 μM. HepG2 cells were plated on 96-well tissue culture treated black walled clear bottomed polystyrene plates at 0:3 _ 104 cells in 100_L per well. After 24 hr the cells were dosed with the test compound at a range of concentrations (see Assay Summary for details). At the end of the incubation period, the cells were loaded with the relevant dye/antibody for each cell health marker. The plates were then scanned using an automated fluorescent cellular imager, ArrayScanr VTI (Thermo Scientific Cellomics).

[5] = target: T1, Cyp 450 1A2 (Homo sapiens, UniProt P05177); test: Cytochrome P450 inhibition in human liver microsomes; assay type: in vitro ADME; conditions: at 25 μM
T1 construct: tissue Cyprotex (CRO); host or cells: human liver microsomes
T1 sequence (P05177 1-516): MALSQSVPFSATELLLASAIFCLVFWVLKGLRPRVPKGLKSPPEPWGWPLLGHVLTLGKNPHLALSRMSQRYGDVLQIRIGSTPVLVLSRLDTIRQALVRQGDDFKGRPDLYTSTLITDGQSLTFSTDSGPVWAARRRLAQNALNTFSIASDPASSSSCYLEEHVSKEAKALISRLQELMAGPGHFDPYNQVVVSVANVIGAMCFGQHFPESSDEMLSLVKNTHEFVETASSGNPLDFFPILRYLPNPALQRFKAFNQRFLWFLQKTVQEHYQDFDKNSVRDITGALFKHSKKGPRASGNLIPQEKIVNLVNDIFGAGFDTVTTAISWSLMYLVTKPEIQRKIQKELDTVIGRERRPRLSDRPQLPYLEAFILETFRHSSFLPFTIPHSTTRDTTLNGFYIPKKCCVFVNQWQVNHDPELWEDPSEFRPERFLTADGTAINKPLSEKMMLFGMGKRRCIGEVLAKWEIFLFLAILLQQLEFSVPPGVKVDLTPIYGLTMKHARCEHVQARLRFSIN
Protocol: (§1) The five main cytochrome P450 isoforms (CYP1A, CYP2C9, CYP2C19, CYP2D6 and CYP3A4) were investigated in the P450 inhibition assay. […] At the end of the incubation, the formation of the metabolite was monitored by LC-MS/MS (or fluorescence in the case of CYP1A) at each of the test compound concentrations.

[6] = target: T2, Cyp 450 2C9 (Homo sapiens, UniProt P11712); test: as above; assay type: in vitro ADME; conditions: at 25 μM
T2 construct: tissue Cyprotex (CRO); host or cells: human liver microsomes
T2 sequence (P11712 whole entry): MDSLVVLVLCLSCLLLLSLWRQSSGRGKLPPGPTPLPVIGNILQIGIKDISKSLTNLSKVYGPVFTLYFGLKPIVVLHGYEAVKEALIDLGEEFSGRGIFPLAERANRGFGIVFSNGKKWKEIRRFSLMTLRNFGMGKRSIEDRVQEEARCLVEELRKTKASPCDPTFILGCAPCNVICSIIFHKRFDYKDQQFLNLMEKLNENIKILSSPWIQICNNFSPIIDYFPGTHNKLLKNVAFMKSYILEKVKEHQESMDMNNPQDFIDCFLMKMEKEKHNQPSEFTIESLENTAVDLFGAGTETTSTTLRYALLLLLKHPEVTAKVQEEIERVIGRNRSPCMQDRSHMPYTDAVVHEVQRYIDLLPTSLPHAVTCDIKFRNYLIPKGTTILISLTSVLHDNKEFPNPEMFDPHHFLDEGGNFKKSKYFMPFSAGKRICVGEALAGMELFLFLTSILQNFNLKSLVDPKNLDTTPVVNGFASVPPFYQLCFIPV
Protocol: as §1

[7] = target: T3, Cyp 450 2C19 (Homo sapiens, UniProt P33261); test: as above; assay type: in vitro ADME; conditions: at 25 μM
T3 construct: tissue Cyprotex (CRO); host or cells: human liver microsomes
T3 sequence (P33261 whole entry): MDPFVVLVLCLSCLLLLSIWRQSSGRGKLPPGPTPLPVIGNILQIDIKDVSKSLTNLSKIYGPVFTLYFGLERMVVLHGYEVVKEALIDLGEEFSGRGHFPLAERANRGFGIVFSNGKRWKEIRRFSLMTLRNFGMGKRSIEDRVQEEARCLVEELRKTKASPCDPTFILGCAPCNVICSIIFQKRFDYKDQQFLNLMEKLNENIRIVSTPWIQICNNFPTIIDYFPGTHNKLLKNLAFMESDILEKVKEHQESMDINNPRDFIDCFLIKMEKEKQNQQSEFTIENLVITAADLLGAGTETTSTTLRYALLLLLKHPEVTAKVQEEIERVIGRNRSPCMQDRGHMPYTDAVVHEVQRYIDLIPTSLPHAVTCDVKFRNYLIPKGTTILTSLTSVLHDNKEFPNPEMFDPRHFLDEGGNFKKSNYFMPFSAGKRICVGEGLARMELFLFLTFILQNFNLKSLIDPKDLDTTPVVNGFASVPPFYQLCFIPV
Protocol: as §1

[8] = target: T4, Cyp 450 3A4 (Homo sapiens, UniProt P08684); test: as above; assay type: in vitro ADME; conditions: at 25 μM
T4 construct: tissue Cyprotex (CRO); host or cells: human liver microsomes
T4 sequence (P08684 whole entry): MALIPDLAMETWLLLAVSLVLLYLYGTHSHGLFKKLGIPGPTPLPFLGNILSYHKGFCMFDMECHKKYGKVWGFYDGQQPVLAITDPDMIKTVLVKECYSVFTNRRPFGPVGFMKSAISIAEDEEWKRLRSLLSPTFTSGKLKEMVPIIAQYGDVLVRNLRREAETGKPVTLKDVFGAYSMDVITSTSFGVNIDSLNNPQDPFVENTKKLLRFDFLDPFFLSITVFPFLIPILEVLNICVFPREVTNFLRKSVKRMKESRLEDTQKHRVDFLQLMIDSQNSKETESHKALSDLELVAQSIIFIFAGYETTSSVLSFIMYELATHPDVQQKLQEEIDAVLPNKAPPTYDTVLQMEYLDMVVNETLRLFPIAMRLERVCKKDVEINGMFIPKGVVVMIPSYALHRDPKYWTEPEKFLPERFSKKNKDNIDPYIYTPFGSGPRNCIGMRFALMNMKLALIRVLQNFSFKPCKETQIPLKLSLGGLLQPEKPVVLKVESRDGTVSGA
Protocol: as §1

[9] = target: T5, Cyp 450 2D6 (Homo sapiens, UniProt P10635); test: as above; assay type: in vitro ADME; conditions: at 25 μM
T5 construct: tissue Cyprotex (CRO); host or cells: human liver microsomes
T5 sequence (P10635 whole entry): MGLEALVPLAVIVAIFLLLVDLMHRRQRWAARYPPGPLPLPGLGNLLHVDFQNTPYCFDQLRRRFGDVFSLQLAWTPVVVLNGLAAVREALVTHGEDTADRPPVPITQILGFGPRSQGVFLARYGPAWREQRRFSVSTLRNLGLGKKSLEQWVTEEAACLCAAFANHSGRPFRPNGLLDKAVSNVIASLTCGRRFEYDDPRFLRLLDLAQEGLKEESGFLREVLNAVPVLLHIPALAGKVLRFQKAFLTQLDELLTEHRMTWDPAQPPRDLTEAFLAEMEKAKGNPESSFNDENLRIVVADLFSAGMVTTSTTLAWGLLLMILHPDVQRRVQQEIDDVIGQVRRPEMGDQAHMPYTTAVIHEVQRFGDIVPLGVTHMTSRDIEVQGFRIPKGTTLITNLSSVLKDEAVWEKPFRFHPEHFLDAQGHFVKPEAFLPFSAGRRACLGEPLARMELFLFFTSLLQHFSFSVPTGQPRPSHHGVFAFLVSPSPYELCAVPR
Protocol: as §1

[10] = PK studies in rats; assay type: in vivo, Sprague-Dawley rats; conditions: for rat pK AUC po: 10 mg/kg po, 8% Ethanol/92% PEG-400, n = 4; for rat pK Cl: iv 0.5 mg/kg; for rat pK Cl / bioavailability: n = 4; for bioavailability: male, Sprague-Dawley, whole blood, rat, 10 mg/kg po vs 0.5 mg/kg iv, read-out: rat pK F%
Protocol: The Test Items were orally administered at a dose of 10 mg/kg and a dosing volume of 10 mL/kg. […] The Test Items were intravenously administered at a dose of 0.5 mg/kg and a dosing volume of 2 mL/kg. […] Whole blood concentrations of the Test Items were measured using LC-MS/MS and selected pharmacokinetic parameters calculated using Pharsight WinNonLin software. For furthers details see Supplementary data file.

[11] = target: T6, mouse RAR alpha receptor (Mus musculus, UniProt P11416); conditions: relative to the amplitude of the normalizing ATRA output
T6 sequence (P11416 183-417 limits assumed): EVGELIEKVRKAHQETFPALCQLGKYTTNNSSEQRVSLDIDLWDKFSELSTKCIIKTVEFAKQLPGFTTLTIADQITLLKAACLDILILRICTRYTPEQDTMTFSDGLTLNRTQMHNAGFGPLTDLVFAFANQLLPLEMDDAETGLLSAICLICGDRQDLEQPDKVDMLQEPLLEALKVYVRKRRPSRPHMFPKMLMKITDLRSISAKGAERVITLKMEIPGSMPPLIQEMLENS

SMILES | mutagenicity in vitro [1] | logD [2] | microsomal CLint ([3]; human microsomes) [µL/min/mg] | cell membrane permeability [4] | mitochondrial membrane potential [4] | microsomal CLint ([3]; mouse microsomes) [µL/min/mg] | Cyp1A liability [5] | Cyp 2C9 liability [6] | Cyp 2C19 liability [7] | Cyp 3A4 liability [8] | Cyp 2D6 liability [9] | rat pK AUC po [10] | rat pK Cl [10] [mL/kg/min] | bioavailability [10] [%] | RARα agonist type (partial / full agonist) [11]
CC1(C)CCC(C)(C)c2cc(C(=O)Nc3ccc(C(=O)O)cc3)ccc21 [Compound 2] | mutagen | 2.8 | 15.6 | significant increase | significant decrease |  |  |  |  |  |  |  |  |  | 
CCOc1c(Cl)cc(C(=O)Nc2ccc(C(=O)O)cc2)cc1Cl [Compound 5, 4-(3,5-dichloro-4-ethoxybenzamido)benzoic acid] |  | 1.7 | 18 |  |  | 127 | inactive | inactive | inactive | inactive | inactive |  |  |  | 
CC(C)Oc1cc(C(=O)Nc2ccc(C(=O)O)cc2)cc(Cl)c1OC(C)C [Compound 39, 4-(3-chloro-4,5-diisopropoxybenzamido)benzoic acid] |  | 2.6 |  |  |  | 31 |  |  |  |  |  | 43,569 ng·min mL^−1 | 10 | 39 | full agonist
COc1c(Cl)cc(C(=O)Nc2ccc(C(=O)O)cc2)cc1OC(C)C [Compound 51] |  | 1 | 12 |  |  | 9 |  |  |  |  |  | 50,940 ng·min mL^−1 | 3 | 13 | full agonist
